# Starred links: 1 amine or outer side, 2 acyl side, 3 side chain; linkers in the order of their positions; H or OH if unused. Non-standard residues stand in square brackets, D forms with d. Residues, ends and D or L forms follow the SMILES beside them. Groups on a side chain read outwards from the residue. *: point of attachment. C18 diacid = O=C(O)CCCCCCCCCCCCCCCCC(=O)*; γGlu = O=C(O)[C@H](CCC(=O)[*:2])N[*:1]; AEEA = NCCOCCOCC(=O)O; Aib = CC(C)(N)C(=O)O
# Target: T1, human CRF2α receptor (Homo sapiens, UniProt Q13324)
# T1 construct: expressed in transfected cells; host or cells: TeloHEAC
# T1 sequence (Q13324 1-411): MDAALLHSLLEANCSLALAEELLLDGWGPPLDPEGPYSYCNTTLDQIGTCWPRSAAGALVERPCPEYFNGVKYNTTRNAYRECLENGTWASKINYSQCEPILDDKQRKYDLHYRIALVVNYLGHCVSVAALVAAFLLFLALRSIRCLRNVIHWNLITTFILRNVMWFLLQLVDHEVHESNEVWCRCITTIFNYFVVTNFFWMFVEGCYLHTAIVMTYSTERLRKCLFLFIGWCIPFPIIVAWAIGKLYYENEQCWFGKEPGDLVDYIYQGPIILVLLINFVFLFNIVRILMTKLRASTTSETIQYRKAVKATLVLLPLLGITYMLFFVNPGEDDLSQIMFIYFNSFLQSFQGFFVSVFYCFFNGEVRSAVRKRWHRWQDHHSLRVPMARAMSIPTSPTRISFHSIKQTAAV
# Experiment: cAMP agonism at human CRF2 α receptor in TeloHEAC cells (Example 7)
# Format: cell-based
# Details: cAMP HTRF, TeloHEAC cells stably expressing human CRF2 α, 0% HSA; read-out: EC50 [nM], 0% HSA
# Outline: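 Percent activation was referenced to 1000 nM UCN2 (100%), and EC50 values taken as concentrations giving half of maximal response. The read-out was a homogeneous time-resolved fluorescence cAMP kit, fluorescence ratio 665/620 nm. Thawed cells (2000/well) saw compound for 30 min at RT in buffer with 2 mM IBMX and 0%/0.1% HSA.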
row,SMILES,EC50 [nM]
1,CC[C@H](C)[C@H](N)C(=O)N[C@H](C(=O)N[C@@H](CC(C)C)C(=O)N[C@@H](CO)C(=O)N[C@@H](CC(C)C)C(=O)N[C@@H](CC(=O)O)C(=O)N[C@H](C(=O)N1CCC[C@H]1C(=O)N[C@H](C(=O)N[C@@H](CCCCN)C(=O)N[C@@H](CC(C)C)C(=O)N[C@@H](CCCCNC(=O)COCCOCCNC(=O)COCCOCCNC(=O)CC[C@H](NC(=O)CCCCCCCCCCCCCCCCC(=O)O)C(=O)O)C(=O)N[C@@H](CCC(N)=O)C(=O)N[C@@H](CCCCN)C(=O)N[C@@H](CC(C)C)C(=O)N[C@@H](CC(C)C)C(=O)N[C@@H](CCCCN)C(=O)N[C@@H](CCC(N)=O)C(=O)N[C@@H](CCC(=O)O)C(=O)N[C@@H](CCCNC(=N)N)C(=O)N[C@@H](CCC(N)=O)C(=O)N[C@@H](CCCCN)C(=O)N[C@@H](CCCCN)C(=O)N[C@@H](CCC(=O)O)C(=O)N[C@@H](CCCNC(=N)N)C(=O)N[C@@H](CCC(=O)O)C(=O)N[C@@H](CCC(N)=O)C(=O)N[C@@H](C)C(=O)N[C@@H](CCC(=O)O)C(=O)N[C@H](C(=O)N[C@@H](CC(N)=O)C(=O)N[C@@H](CCCCN)C(=O)N[C@@H](CCC(N)=O)C(=O)N[C@H](C(=O)N[C@@H](CC(C)C)C(=O)N[C@@H](C)C(=O)N[C@@H](CCC(N)=O)C(=O)N[C@H](C(N)=O)C(C)C)[C@@H](C)CC)[C@@H](C)O)[C@@H](C)CC)C(C)C)C(C)C [compound 95] (H-IVLSLDVPIKLK([AEEA-AEEA-γGlu-C18 diacid])QKLLKQERQKKEREQAETNKQILAQV-NH2; N-terminus assumed),25
2,CC[C@H](C)[C@H](N)C(=O)N[C@H](C(=O)N[C@@H](CC(C)C)C(=O)N[C@@H](CO)C(=O)N[C@@H](CC(C)C)C(=O)N[C@@H](CC(=O)O)C(=O)N[C@H](C(=O)N1CCC[C@H]1C(=O)N[C@H](C(=O)N[C@@H](CCCCN)C(=O)N[C@@H](CC(C)C)C(=O)N[C@@H](CCCCNC(=O)COCCOCCNC(=O)COCCOCCNC(=O)CC[C@H](NC(=O)CCCCCCCCCCCCCCCCC(=O)O)C(=O)O)C(=O)N[C@@H](CCC(N)=O)C(=O)N[C@@H](CCCCN)C(=O)N[C@@H](CC(C)C)C(=O)N[C@@H](CC(C)C)C(=O)N[C@@H](CCCCN)C(=O)N[C@@H](CCC(N)=O)C(=O)N[C@@H](CCC(=O)O)C(=O)N[C@@H](CCCNC(=N)N)C(=O)N[C@@H](CCC(N)=O)C(=O)N[C@@H](CCCCN)C(=O)N[C@@H](CCCCN)C(=O)N[C@@H](CCC(N)=O)C(=O)N[C@@H](CCCNC(=N)N)C(=O)N[C@@H](CCC(=O)O)C(=O)N[C@@H](CCC(N)=O)C(=O)N[C@@H](C)C(=O)N[C@@H](CCC(=O)O)C(=O)N[C@H](C(=O)N[C@@H](CC(N)=O)C(=O)N[C@@H](CCCCN)C(=O)N[C@@H](CCC(N)=O)C(=O)N[C@H](C(=O)N[C@@H](CC(C)C)C(=O)N[C@@H](C)C(=O)N[C@@H](CCC(N)=O)C(=O)N[C@H](C(N)=O)C(C)C)[C@@H](C)CC)[C@@H](C)O)[C@@H](C)CC)C(C)C)C(C)C [compound 97] (H-IVLSLDVPIKLK([AEEA-AEEA-γGlu-C18 diacid])QKLLKQERQKKQREQAETNKQILAQV-NH2),1.66
3,CC[C@H](C)[C@H](N)C(=O)N[C@H](C(=O)N[C@@H](CC(C)C)C(=O)N[C@@H](CO)C(=O)N[C@@H](CC(C)C)C(=O)N[C@@H](CC(=O)O)C(=O)N[C@H](C(=O)N1CCC[C@H]1C(=O)N[C@H](C(=O)N[C@@H](CCCCN)C(=O)N[C@@H](CC(C)C)C(=O)N[C@@H](CCCCNC(=O)COCCOCCNC(=O)COCCOCCNC(=O)CC[C@H](NC(=O)CCCCCCCCCCCCCCCCC(=O)O)C(=O)O)C(=O)N[C@@H](CCC(N)=O)C(=O)N[C@@H](CCCCN)C(=O)N[C@@H](CC(C)C)C(=O)N[C@@H](CC(C)C)C(=O)N[C@@H](CCCCN)C(=O)N[C@@H](CCC(N)=O)C(=O)N[C@@H](CCC(=O)O)C(=O)N[C@@H](CCCNC(=N)N)C(=O)N[C@@H](CCC(N)=O)C(=O)N[C@@H](CCCCN)C(=O)N[C@@H](CCCCN)C(=O)NC(C)(C)C(=O)N[C@@H](CCCNC(=N)N)C(=O)N[C@@H](CCC(=O)O)C(=O)N[C@@H](CCC(N)=O)C(=O)N[C@@H](C)C(=O)N[C@@H](CCC(=O)O)C(=O)N[C@H](C(=O)N[C@@H](CC(N)=O)C(=O)N[C@@H](CCCCN)C(=O)N[C@@H](CCC(N)=O)C(=O)N[C@H](C(=O)N[C@@H](CC(C)C)C(=O)N[C@@H](C)C(=O)N[C@@H](CCC(N)=O)C(=O)N[C@H](C(N)=O)C(C)C)[C@@H](C)CC)[C@@H](C)O)[C@@H](C)CC)C(C)C)C(C)C [compound 98] (H-IVLSLDVPIKLK([AEEA-AEEA-γGlu-C18 diacid])QKLLKQERQKK[Aib]REQAETNKQILAQV-NH2; N-terminus assumed),2.36
4,CC[C@H](C)[C@H](N)C(=O)N[C@H](C(=O)N[C@@H](CC(C)C)C(=O)N[C@@H](CO)C(=O)N[C@@H](CC(C)C)C(=O)N[C@@H](CC(=O)O)C(=O)N[C@H](C(=O)N1CCC[C@H]1C(=O)N[C@H](C(=O)N[C@@H](CCCCN)C(=O)N[C@@H](CC(C)C)C(=O)N[C@@H](CCCCNC(=O)COCCOCCNC(=O)COCCOCCNC(=O)CC[C@H](NC(=O)CCCCCCCCCCCCCCCCC(=O)O)C(=O)O)C(=O)N[C@@H](CCC(N)=O)C(=O)N[C@H](C(=O)N[C@@H](CC(C)C)C(=O)N[C@@H](CC(C)C)C(=O)N[C@@H](CCCCN)C(=O)N[C@@H](CCC(N)=O)C(=O)N[C@@H](CCC(=O)O)C(=O)N[C@@H](CCCNC(=N)N)C(=O)N[C@@H](CCC(N)=O)C(=O)N[C@@H](CCCCN)C(=O)NC(C)(C)C(=O)N[C@@H](CCC(N)=O)C(=O)N[C@@H](CCCNC(=N)N)C(=O)N[C@@H](CCC(=O)O)C(=O)N[C@@H](CCC(N)=O)C(=O)N[C@@H](C)C(=O)N[C@@H](CCC(=O)O)C(=O)N[C@H](C(=O)N[C@@H](CC(N)=O)C(=O)N[C@@H](CCCCN)C(=O)N[C@@H](CCC(N)=O)C(=O)N[C@H](C(=O)N[C@@H](CC(C)C)C(=O)N[C@@H](CCC(=O)O)C(=O)N[C@@H](CCCNC(=N)N)C(=O)N[C@H](C(N)=O)C(C)C)[C@@H](C)CC)[C@@H](C)O)[C@@H](C)CC)[C@@H](C)CC)C(C)C)C(C)C [compound 107] (H-IVLSLDVPIKLK([AEEA-AEEA-γGlu-C18 diacid])QILLKQERQK[Aib]QREQAETNKQILERV-NH2),0.81
5,CC[C@H](C)[C@H](N)C(=O)N[C@H](C(=O)N[C@@H](CC(C)C)C(=O)N[C@@H](CO)C(=O)N[C@@H](CC(C)C)C(=O)N[C@@H](CC(=O)O)C(=O)N[C@H](C(=O)N1CCC[C@H]1C(=O)N[C@H](C(=O)N[C@@H](CCCCN)C(=O)N[C@@H](CC(C)C)C(=O)N[C@@H](CCCCNC(=O)COCCOCCNC(=O)COCCOCCNC(=O)CC[C@H](NC(=O)CCCCCCCCCCCCCCCCC(=O)O)C(=O)O)C(=O)N[C@@H](CCC(N)=O)C(=O)N[C@H](C(=O)N[C@@H](CC(C)C)C(=O)N[C@@H](CC(C)C)C(=O)N[C@@H](CCCCN)C(=O)N[C@@H](CCC(N)=O)C(=O)N[C@@H](CCC(=O)O)C(=O)N[C@@H](CCCNC(=N)N)C(=O)N[C@@H](CCC(N)=O)C(=O)N[C@@H](CCCCN)C(=O)NC(C)(C)C(=O)N[C@@H](CCC(N)=O)C(=O)N[C@@H](CCCNC(=N)N)C(=O)N[C@@H](CCC(=O)O)C(=O)N[C@@H](CCC(N)=O)C(=O)N[C@@H](C)C(=O)N[C@@H](CCC(=O)O)C(=O)N[C@@H](CCCCN)C(=O)N[C@@H](CC(N)=O)C(=O)N[C@@H](CCCCN)C(=O)N[C@@H](CCC(N)=O)C(=O)N[C@H](C(=O)N[C@@H](CC(C)C)C(=O)N[C@@H](CCC(=O)O)C(=O)N[C@@H](CCCNC(=N)N)C(=O)N[C@H](C(N)=O)C(C)C)[C@@H](C)CC)[C@@H](C)CC)[C@@H](C)CC)C(C)C)C(C)C [compound 115] (H-IVLSLDVPIKLK([AEEA-AEEA-γGlu-C18 diacid])QILLKQERQK[Aib]QREQAEKNKQILERV-NH2; N-terminus assumed),2.77

# Same assay, conditions: cAMP HTRF, TeloHEAC cells stably expressing human CRF2 α, 0.1% HSA; read-out: EC50 [nM], 0.1% HSA
row,SMILES,EC50 [nM]
1,CC[C@H](C)[C@H](N)C(=O)N[C@H](C(=O)N[C@@H](CC(C)C)C(=O)N[C@@H](CO)C(=O)N[C@@H](CC(C)C)C(=O)N[C@@H](CC(=O)O)C(=O)N[C@H](C(=O)N1CCC[C@H]1C(=O)N[C@H](C(=O)N[C@@H](CCCCN)C(=O)N[C@@H](CC(C)C)C(=O)N[C@@H](CCCCNC(=O)COCCOCCNC(=O)COCCOCCNC(=O)CC[C@H](NC(=O)CCCCCCCCCCCCCCCCC(=O)O)C(=O)O)C(=O)N[C@@H](CCC(N)=O)C(=O)N[C@H](C(=O)N[C@@H](CC(C)C)C(=O)N[C@@H](CC(C)C)C(=O)N[C@@H](CCCCN)C(=O)N[C@@H](CCC(N)=O)C(=O)N[C@@H](CCC(=O)O)C(=O)N[C@@H](CCCNC(=N)N)C(=O)N[C@@H](CCC(N)=O)C(=O)N[C@@H](CCCCN)C(=O)NC(C)(C)C(=O)N[C@@H](CCC(N)=O)C(=O)N[C@@H](CCCNC(=N)N)C(=O)N[C@@H](CCC(=O)O)C(=O)N[C@@H](CCC(N)=O)C(=O)N[C@@H](C)C(=O)N[C@@H](CCC(=O)O)C(=O)N[C@H](C(=O)N[C@@H](CC(N)=O)C(=O)N[C@@H](CCCCN)C(=O)N[C@@H](CCC(N)=O)C(=O)N[C@H](C(=O)N[C@@H](CC(C)C)C(=O)N[C@@H](CCC(=O)O)C(=O)N[C@@H](CCCNC(=N)N)C(=O)N[C@H](C(N)=O)C(C)C)[C@@H](C)CC)[C@@H](C)O)[C@@H](C)CC)[C@@H](C)CC)C(C)C)C(C)C [compound 107] (H-IVLSLDVPIKLK([AEEA-AEEA-γGlu-C18 diacid])QILLKQERQK[Aib]QREQAETNKQILERV-NH2),16.1
